Experimental data: US7491707B1, “Synthetic lipid-a-analogs and uses thereof” (Biomira, Inc., priority 1999, dated 2009)
“Also recorded” adds a separate entry of the source.

How the values were obtained:
T-cell = T-cell proliferation (3H thymidine incorporation) of lymph node lymphocytes from mice immunized with MUC1-based liposomal vaccine adjuvanted with Lipid-A analog; type: in vivo, C57-Black mice; details: for T-cell-Proliferation (CPM): s.c. liposomal vaccine 40 μg BP1-148 + 20 μg Lipid-A analog per dose, nine days after injection, boosting antigen BP1-151; for T-cell blastogenesis: in words, liposomal vaccine formulations in mice, FIG. 31-FIG. 33
Protocol: (§1) Typically, the liposomal formulation was composed of 400 μg of MUC1-based lipopeptide BP1-148, H2N-[…](Pal)G-OH, 200 μg of Lipid-A analog, 6.94 mg of cholesterol, 1.46 mg of dimyristoyl phosphatidylglycerol ([…]) and 11.62 mg of dipalmitoyl phosphatidylcholine (DPPC) per 1 ml of saline (0.9% NaCl solution).
(§2) The liposomal constructs were formulated by first dissolving the phospholipids, cholesterol and Lipid A analog in tert-butanol at about 53° C. Lipopeptide and water (5%, v/v) were then added to the tert-butanol solution. The resulting clear 95% tert-butanol solution was injected into about 4 volumes of rapidly stirred water at about 50° C., using a glass syringe with an 18-gauge needle. The small unilamellar vesicles (SUV) formed in this process were cooled, sterilized by filtration through a 0.22 μm membrane filter, filled into vials and lyophilized. The dry powder was re-hydrated with sterile saline before injection, resulting in the formation of multilamellar large vesicles (MLV). The liposomes formed are used to immunize mice.
(§3) Groups of C57-Black mice were immunized subcutaneously with the liposomal vaccine containing 40 μg of MUC1-based lipopeptide BP1-148 (FIG. 34), which has the peptide sequence of H2N-[…](Pal) G-OH, and 20 μg of Lipid-A analog per dose. Nine days after vaccine injection mice were sacrificed and lymphocytes were taken from the draining lymph nodes (local response) or from the spleens (systemic response) to determine the immune response in each group. The lymphocytes taken from immunized mice were incubated in in vitro cultures in the presence of MUC1-based boosting antigen BP1-151, which has the peptide sequence H2N-[…]-OH.
T-cell proliferation was evaluated using a standard ^3H thymidine incorporation assay. Briefly, nylon wool passed inguinal lymph node lymphocytes from each mouse were added to a culture containing 106 native mitomycin C treated syngeneic splenocytes, which serves as antigen presenting cells (APCs). To each well 20 μg of MUC1-based boosting peptide BP1-151, H2N-[…]-OH (single letter amino acid code, Table 8), was added for positive control; and cultures containing no antigen or peptide BP1-72, which has the peptide sequence H2N-[…]-OH, were used as negative control. The culture was incubated for 72 h in a total volume of 250 μl well, followed by adding 1 μCi of ^3H-thymidine in a volume of 50 μl. The plates were incubated for an additional 18-20 h. Cells were harvested and [^3H]dTh incorporation was measured by liquid scintillation counter. T-cell proliferation results corresponding to various liposomal vaccines adjuvanted, with different Lipid-A analogs are summarized in Tables 1-Table 3 and FIG. 31-FIG. 33.

Interferon-gamma (IFN-γ) = Interferon-gamma (IFN-γ) production in cell culture supernatants by ELISA, lymphocytes of mice immunized with adjuvanted MUC1 liposomal vaccine; type: in vivo, C57-Black mice; details: for Interferon-gamma (IFN-γ, pg/ml): s.c. liposomal vaccine 40 μg BP1-148 + 20 μg Lipid-A analog per dose, nine days after injection; for interferon-gamma production: in words, liposomal vaccine formulations in mice, FIG. 31-FIG. 33
Protocol: as §1, §2, §3
Interferon-gamma (IFN-γ) levels were determined in the cell culture supernatants using enzyme-linked immunoabsorbent assay (ELISA). 96-Well plates were coated with 50 μl of catcher Mabs in 50 μl of R4.6AZ at 37° C. for 30 min. The plates were then washed and incubated with test samples for 45 min. After two washes the second biotinylated antibody, XMG1.2 was added. After washing, peroxidase-conjugated streptavidin was added and incubated again for 30 min. Finally, 100 μl of horseradish peroxidase (HRPO) substrate solution was added. The optical density was measured with a Thermomax ELISA reader at 405 nm wavelength in kinetic mode for 10 min. The interferon-gamma (IFN-γ) levels corresponding to various Lipid-A analogs are shown in Table 1-Table 3 and FIG. 31-FIG. 33.

[1] = system: immune response to MUC1-based lipopeptide BP1-148; test: Adjuvanticity of Lipid-A analogs in liposomal vaccine with MUC1 lipopeptide BP1-148 (T-cell blastogenesis and IFN-γ production); type: in vivo, mice; details: in words; liposomal formulations with BP1-148 in mice, FIGS. 31-33
From the text: Liposome formulations have been used to evaluate the adjuvant properties of various synthetic Lipid-A structures and the immune responses to a synthetic lipopeptide antigen BP-148, H2N-[…](Pal)G-OH (FIG. 34), a modified 25-amino-acid sequence derived from tumor-associated MUC1 mucin. The commercially available Lipid-A product, which is currently under clinical evaluation as an adjuvant for vaccine programs, was used for comparison. The natural Lipid-A product, purchased from AVANTI, contained a mixture of Lipid-A analogs extracted from Salmonella bacterial cell wall and is designated as Natural Lipid-A in this invention.
Thus, the liposomal formulations containing the synthetic lipopeptide antigen, BP1-148, and Lipid-A analogs 33, 48, 54, 58, 70, 77, 86, 94, 102, 104 or Natural Lipid-A, were used to immunize mice to measure their immune response in terms of T-cell blastogenesis and interferon-gamma (IFN-γ) production. The compounds were tested in three groups at different time and their preliminary results are shown separately in FIGS. 31-33. As the variations are attributed to different factors such as animal groups and experimental factors, the data from different groups will not be compared.
as §3

## CCCCCCCCCCCCO[C@H](CCCCCCCCCCC)CC(=O)O[C@H](CCCCCCCCCCC)CC(=O)N[C@H]1C(O)O[C@H](CO[C@@H]2O[C@H](CO)[C@@H](OP(=O)(O)O)[C@H](OC(=O)C[C@@H](CCCCCCCCCCC)OCCCCCCCCCCCC)[C@H]2NC(=O)C[C@H](O)CCCCCCCCCCC)[C@@H](O)[C@@H]1O (stereo partly drawn) [Compound 104, 2-Deoxy-6-O-{2-deoxy-4-O-phosphono-2-[(3R)-3-hydroxytetradecanamido]-3-O-[(3R)-3-dodecyloxytetradecanoyl]-β-D-glucopyranosyl}-2-{(3R)-3-[(3R)-3-dodecyloxytetradecanoyloxy]-tetradecanamido}-α/β-D-glucopyranose]
T-cell; Table 3, third test group
  T-cell-Proliferation (CPM): 12635 CPM
T-cell
  T-cell blastogenesis: significant T-cell blastogenesis
Interferon-gamma (IFN-γ); Table 3, third test group
  Interferon-gamma (IFN-γ, pg/ml): 14669 pg/mL
Interferon-gamma (IFN-γ)
  interferon-gamma production: high levels of interferon-gamma
[1]
  adjuvant activity compared to Natural Lipid-A (Lipid-A preparation of bacterial origin): similar; also recorded: as effective

## CCCCCCCCCCCCCCCC(=O)O[C@H](CCCCCCCCCCC)CC(=O)N[C@H]1C(O)O[C@H](CO[C@@H]2O[C@H](CO)[C@@H](OP(=O)(O)O)[C@H](OC(=O)C[C@@H](CCCCCCCCCCC)OC(=O)CCCCCCCCCCCCC)[C@H]2NC(=O)C[C@@H](CCCCCCCCCCC)OC(=O)CCCCCCCCCCC)[C@@H](O)[C@@H]1O (stereo partly drawn) [Compound 48, 2-Deoxy-6-O-{2-deoxy-2-[(3R)-3-dodecanoyloxytetradecanamido]-4-O-phosphono-3-O-[(3R)-3-tetradecanoyloxytetradecanoyl]-β-D-glucopyranosyl}-2-[(3R)-3-hexadecanoyloxytetradecanamido]-α/β-D-glucopyranose]
T-cell; Table 1, first test group
  T-cell-Proliferation (CPM): 14112 CPM
T-cell; Table 2, second test group
  T-cell-Proliferation (CPM): 28149 CPM
T-cell
  T-cell blastogenesis: significant T-cell blastogenesis
Interferon-gamma (IFN-γ); Table 1, first test group
  Interferon-gamma (IFN-γ, pg/ml): 2430 pg/mL
Interferon-gamma (IFN-γ); Table 2, second test group
  Interferon-gamma (IFN-γ, pg/ml): 18261 pg/mL
Interferon-gamma (IFN-γ)
  interferon-gamma production: high levels of interferon-gamma
[1]
  adjuvant activity compared to Natural Lipid-A (Lipid-A preparation of bacterial origin): as effective

## CCCCCCCCCCCCO[C@H](CCCCCCCCCCC)CC(=O)N[C@H]1[C@H](OC[C@H]2OC(O)[C@H](NC(=O)C[C@@H](CCCCCCCCCCC)OCCCCCCCCCCCC)[C@@H](OC(=O)C[C@H](O)CCCCCCCCCCC)[C@@H]2O)O[C@H](CO)[C@@H](OP(=O)(O)O)[C@@H]1OC(=O)C[C@@H](CCCCCCCCCCC)OCCCCCCCCCCCC (stereo partly drawn) [Compound 94, 2-Deoxy-6-O-{2-deoxy-4-O-phosphono-2-[(3R)-3-dodecyloxytetradecanamido]-3-O-[(3R)-3-dodecyloxytetradecanoyl]-β-D-glucopyranosyl}-3-O-[(3R)-3-hydroxytetradecanoyl]-2-[(3R)-3-dodecyloxytetradecanamido]-α/β-D-glucopyranose]
T-cell; Table 3, third test group
  T-cell-Proliferation (CPM): 10882 CPM
T-cell
  T-cell blastogenesis: significant T-cell blastogenesis
Interferon-gamma (IFN-γ); Table 3, third test group
  Interferon-gamma (IFN-γ, pg/ml): 2150 pg/mL
Interferon-gamma (IFN-γ)
  interferon-gamma production: low

## CCCCCCCCCCCCCC(=O)O[C@H](CCCCCCCCCCC)CC(=O)N[C@H]1[C@H](OC[C@H]2OC(O)[C@H](NC(=O)C[C@@H](CCCCCCCCCCC)OC(=O)CCCCCCCCCCCCC)[C@@H](O)[C@@H]2O)O[C@H](CO)[C@@H](OP(=O)(O)O)[C@@H]1OC(=O)C[C@@H](CCCCCCCCCCC)OC(=O)CCCCCCCCCCCCC (stereo partly drawn) [Compound 54, 2-Deoxy-6-O-{2-deoxy-4-O-phosphono-2-[(3R)-3-tetradecanoyloxytetradecanamido]-3-O-[(3R)-3-tetradecanoyloxytetradecanoyl]-β-D-glucopyranosyl}-2-[(3R)-3-tetradecanoyloxytetradecanamido]-α/β-D-glucopyranose]
T-cell; Table 2, second test group
  T-cell-Proliferation (CPM): 32976 CPM
T-cell
  T-cell blastogenesis: significant T-cell blastogenesis
Interferon-gamma (IFN-γ); Table 2, second test group
  Interferon-gamma (IFN-γ, pg/ml): 36166 pg/mL
Interferon-gamma (IFN-γ)
  interferon-gamma production: high levels of interferon-gamma
[1]
  adjuvant activity compared to Natural Lipid-A (Lipid-A preparation of bacterial origin): as effective

## CCCCCCCCCCCCO[C@H](CCCCCCCCCCC)CC(=O)N[C@H]1[C@H](OC[C@H]2OC(O)[C@H](NC(=O)C[C@@H](CCCCCCCCCCC)OC(=O)C[C@@H](CCCCCCCCCCC)OCCCCCCCCCCCC)[C@@H](O)[C@@H]2O)O[C@H](CO)[C@@H](OP(=O)(O)O)[C@@H]1OC(=O)C[C@@H](CCCCCCCCCCC)OCCCCCCCCCCCC (stereo partly drawn) [Compound 102, 2-Deoxy-6-O-{2-deoxy-4-O-phosphono-2-[(3R)-3-dodecyloxytetradecanamido]-3-O-[(3R)-3-dodecyloxytetradecanoyl]-β-D-glucopyranosyl}-2-{(3R)-3-[(3R)-3-dodecyloxytetradecanoyloxy]-tetradecanamido}-α/β-D-glucopyranose]
T-cell; Table 3, third test group
  T-cell-Proliferation (CPM): 13389 CPM
T-cell
  T-cell blastogenesis: significant T-cell blastogenesis
Interferon-gamma (IFN-γ); Table 3, third test group
  Interferon-gamma (IFN-γ, pg/ml): 10587 pg/mL
Interferon-gamma (IFN-γ)
  interferon-gamma production: high levels of interferon-gamma
[1]
  adjuvant activity compared to Natural Lipid-A (Lipid-A preparation of bacterial origin): similar; also recorded: as effective

## CCCCCCCCCCCCCC(=O)O[C@H](CCCCCCCCCCC)CC(=O)N[C@H]1[C@H](OC[C@H]2OC(O)[C@H](NC(=O)C[C@@H](CCCCCCCCCCC)OC(=O)CCCCCCCCCCCCC)[C@@H](OCCC)[C@@H]2O)O[C@H](CO)[C@@H](OP(=O)(O)O)[C@@H]1OC(=O)C[C@@H](CCCCCCCCCCC)OC(=O)CCCCCCCCCCCCC (stereo partly drawn) [Compound 70, 2-Deoxy-6-O-{2-deoxy-2-[(3R)-3-tetradecanoyloxytetradecanamido]-4-O-phosphono-3-O-[(3R)-3-tetradecanoyloxytetradecanoyl]-β-D-glucopyranosyl}-3-O-propyl-2-[(3R)-3-tetradecanoyloxytetradecanamido]-α/β-D-glucopyranose]
T-cell; Table 2, second test group
  T-cell-Proliferation (CPM): 25034 CPM
T-cell
  T-cell blastogenesis: significant T-cell blastogenesis
Interferon-gamma (IFN-γ); Table 2, second test group
  Interferon-gamma (IFN-γ, pg/ml): 17321 pg/mL
Interferon-gamma (IFN-γ)
  interferon-gamma production: high levels of interferon-gamma
[1]
  adjuvant activity compared to Natural Lipid-A (Lipid-A preparation of bacterial origin): as effective
